How the values were obtained:
[1] = Acute intravenous or oral mouse bioavailability study; type: in vivo; settings: plasma, fasted male mice, oral 6 mg/kg vs IV 5 mg/kg
Description: Fasted male mice were used in this study. Concentrations were determined using an LC/MS/MS assay following liquid-liquid extraction of plasma samples. Bioavailability was calculated using the mean normalized AUC0-∞ values obtained following oral administration of 6 mg/kg relative to the mean normalized AUC0-∞ at 5 mg/kg IV.

[2] = 2-week rat toxicology and toxicokinetic study; type: in vivo; settings: for Cmax / Tmax / AUC(0-t): po; for AUC(0-t): read-out: AUC0-24
[3] = Rat developmental toxicity study with toxicokinetics; type: in vivo; settings: for AUC(0-t) / Cmax / Tmax: female, Crl:CD(SD)IGS BR, rat, in vivo, pregnant rats; for AUC(0-t): read-out: AUC0-24
Description: For the toxicology assessment, there were twenty-five mated females/group.
Females that delivered early were necropsied on the day of delivery. […] The fetuses were weighed, sexed, and examined for external, visceral, and skeletal malformations and developmental variations.

[4] = Dog oral cardiovascular (radiotelemetry) study; type: in vivo
Description: There were four male and four female dogs per group. Surgical implantation of radiotelemetry devices occurred under anesthesia approximately 1 week prior to study initiation. The test article was administered according to a Latin square design such that each radiotelemetry-implanted dog received each treatment once, with a 7-day washout period between doses. Clinical examinations and detailed physical examinations were performed, and individual body weights were recorded on dosing days.

[5] = target: T1, serotonin transporters (SERT) in the human brain (Homo sapiens, UniProt P31645); test: Open label PET study with [11C]DASB (DOV 947-007); type: in vivo; settings: for brain SERT occupancy: 150 mg single oral dose; for Mean (Range) SERT Occupancy, Mean / Mean (Range) SERT Occupancy, Striatum / Mean (Range) SERT Occupancy, Thalamus: EB-1010 150 mg single oral, N = 3, preliminary
T1 construct: from tissue; host or cells: brain of healthy male volunteers, in vivo PET with [11C]DASB
T1 sequence (P31645 whole entry): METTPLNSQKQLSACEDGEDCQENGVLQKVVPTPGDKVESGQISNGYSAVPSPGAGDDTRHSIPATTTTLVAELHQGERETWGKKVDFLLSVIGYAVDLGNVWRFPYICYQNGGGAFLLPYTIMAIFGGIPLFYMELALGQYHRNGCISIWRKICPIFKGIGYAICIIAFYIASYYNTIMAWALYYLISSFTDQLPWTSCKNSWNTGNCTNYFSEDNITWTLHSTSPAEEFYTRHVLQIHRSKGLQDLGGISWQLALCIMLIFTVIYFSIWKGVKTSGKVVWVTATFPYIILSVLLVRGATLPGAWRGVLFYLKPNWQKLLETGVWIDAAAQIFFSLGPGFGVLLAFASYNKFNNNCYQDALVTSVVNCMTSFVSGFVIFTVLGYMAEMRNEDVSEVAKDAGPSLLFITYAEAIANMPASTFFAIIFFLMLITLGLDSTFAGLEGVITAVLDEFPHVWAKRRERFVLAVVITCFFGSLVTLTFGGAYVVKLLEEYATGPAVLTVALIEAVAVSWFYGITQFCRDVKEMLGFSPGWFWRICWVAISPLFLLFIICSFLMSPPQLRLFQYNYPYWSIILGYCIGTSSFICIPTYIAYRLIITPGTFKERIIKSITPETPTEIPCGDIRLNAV
Description: With PET imaging, uptake inhibitor effects may be measured based on the proportion of SERT sites blocked in the brain. […] Safety was monitored by clinical and laboratory evaluations, including vital signs, physical examination, clinical chemistry, hematology, urinalysis, and ECG.

[6] = 14-day mouse toxicity and toxicokinetic study; settings: both, Crl:CD-1(ICR) BR, in vivo, po
[7] = female, Crl:CD (SD)IGS BR, rat, in vivo, 10 mg/kg/day, females, 10 mg/kg/day, Day 0
[8] = female, Crl:CD (SD)IGS BR, rat, in vivo, 10 mg/kg/day, females, 10 mg/kg/day, Day 13
[9] = female, Crl:CD (SD)IGS BR, rat, in vivo, 20 mg/kg/day, females, 20 mg/kg/day, Day 0
[10] = female, Crl:CD (SD)IGS BR, rat, in vivo, 20 mg/kg/day, females, 20 mg/kg/day, Day 13
[11] = female, Crl:CD (SD)IGS BR, rat, in vivo, 40 mg/kg/day, females, 40 mg/kg/day, Day 0
[12] = female, Crl:CD (SD)IGS BR, rat, in vivo, 40 mg/kg/day, females, 40 mg/kg/day, Day 13
[13] = male, Crl:CD (SD)IGS BR, rat, in vivo, 10 mg/kg/day, males, 10 mg/kg/day, Day 13
[14] = male, Crl:CD (SD)IGS BR, rat, in vivo, 20 mg/kg/day, males, 20 mg/kg/day, Day 0
[15] = male, Crl:CD (SD)IGS BR, rat, in vivo, 20 mg/kg/day, males, 20 mg/kg/day, Day 13
[16] = male, Crl:CD (SD)IGS BR, rat, in vivo, 40 mg/kg/day, males, 40 mg/kg/day, Day 0
[17] = male, Crl:CD (SD)IGS BR, rat, in vivo, 40 mg/kg/day, males, 40 mg/kg/day, Day 13
[18] = male, Crl:CD(SD)IGS BR, rat, in vivo, 10 mg/kg/day, males, 10 mg/kg/day, Day 0
[19] = po, 3 mg/kg/day, 3 mg/kg/day, GD 6
[20] = po, 3 mg/kg/day, 3 mg/kg/day, GD 17
[21] = po, 20 mg/kg/day, 20 mg/kg/day, GD 6
[22] = po, 20 mg/kg/day, 20 mg/kg/day, GD 17

Work on `Clc1ccc([C@]23CNC[C@H]2C3)cc1Cl` [amitifadine, (+)-1-(3,4-dichlorophenyl)-3-azabicyclo[3.1.0]hexane] yielded a bioavailability [1] of roughly 16%, an NOAEL at 14 days ([2]; both sexes, Crl:CD(SD)IGS BR, rat, in vivo, oral gavage, 14 days, read-out: NOAEL for systemic toxicity) of 40 mg/kg/day and a Cmax [2, 7] of 1830 ng/mL. For the same compound, the Tmax [2, 7] was 2 h, the AUC(0-t) [2, 7] was 11600 ng·h/mL and the Cmax [2, 8] was 1150 ng/mL. The Tmax [2, 8] was 2 h, the AUC(0-t) [2, 8] was 8190 ng·h/mL and the Cmax [2, 9] was 2800 ng/mL. It also gave a Tmax [2, 9] of 1 h, an AUC(0-t) [2, 9] of 28600 ng·h/mL and a Cmax [2, 10] of 2300 ng/mL. For the same compound, the Tmax [2, 10] was 1 h, the AUC(0-t) [2, 10] was 22000 ng·h/mL and the Cmax [2, 11] was 4440 ng/mL. For the same compound, the Tmax [2, 11] was 4 h, the AUC(0-t) [2, 11] was 50600 ng·h/mL and the Cmax [2, 12] was 3100 ng/mL. For the same compound, the Tmax [2, 12] was 2 h, the AUC(0-t) [2, 12] was 32900 ng·h/mL and the “increase in mean absolute liver weight” value ([2]; females, 40 mg/kg/day) was 18%. For the same compound, the Cmax [2, 13] was 878 ng/mL, the Tmax [2, 13] was 2 h and the AUC(0-t) [2, 13] was 6310 ng·h/mL. The Cmax [2, 14] was 3000 ng/mL, the Tmax [2, 14] was 1 h and the AUC(0-t) [2, 14] was 17400 ng·h/mL. The Tmax [2, 15] was 2 h, the AUC(0-t) [2, 15] was 13000 ng·h/mL and the Cmax [2, 16] was 3040 ng/mL. For the same compound, the Tmax [2, 16] was 1 h, the AUC(0-t) [2, 16] was 34800 ng·h/mL and the Cmax [2, 17] was 2730 ng/mL. For the same compound, the Tmax [2, 17] was 1 h, the AUC(0-t) [2, 17] was 25600 ng·h/mL and the Tmax [2, 18] was 1 h. For the same compound, the AUC(0-t) [2, 18] was 7880 ng·h/mL, the “increase in mean absolute liver weight” value ([2]; males, 40 mg/kg/day) was 20% and the AUC(0-t) ([3]; oral, 10 mg/kg/day, 10 mg/kg/day, GD 17) was 11200 ng·h/mL. The Cmax [3, 19] was 387 ng/mL, the AUC(0-t) [3, 19] was 2570 ng·h/mL and the Cmax [3, 20] was 397 ng/mL. The AUC(0-t) [3, 20] was 2620 ng·h/mL, the AUC(0-t) ([3]; po, 10 mg/kg/day, 10 mg/kg/day, GD 6) was 10900 ng·h/mL and the Cmax ([3]; po, 10 mg/kg/day, 10 mg/kg/day, GD 17) was 1300 ng/mL. It also gave a Cmax [3, 21] of 1970 ng/mL, an AUC(0-t) [3, 21] of 19500 ng·h/mL and a Cmax [3, 22] of 1890 ng/mL. The AUC(0-t) [3, 22] was 19700 ng·h/mL, the Tmax ([3]; po, 3 mg/kg/day, GD 6) was 2 h and the Tmax ([3]; po, 10 mg/kg/day, GD 6) was 2 h. The Tmax ([3]; po, 20 mg/kg/day, GD 6) was 2 h, the “NOEL for developmental toxicity” value ([3]; oral gavage GD 6-17) was 10 mg/kg/day and the “change in QTcV interval” value ([4]; 10 mg/kg oral) was less than 2%. For the same compound, the NOEL ([4]; single oral capsule) was 10 mg/kg, the “brain SERT occupancy” value ([5]; about 2 hours) was “approximately 48%” and the “brain SERT occupancy” value ([5]; about 7 hours) was roughly 32%. For the same compound, the “brain SERT occupancy” value ([5]; about 7 hours, listed as EB-1010) was “approximately 32%”, the “Mean (Range) SERT Occupancy, Mean” value ([5]; ~2 h) was 48 (43-54) % and the “Mean (Range) SERT Occupancy, Striatum” value ([5]; ~2 h) was 48 (44-53) %. For the same compound, the “Mean (Range) SERT Occupancy, Thalamus” value ([5]; ~2 h) was 48 (41-55) %, the “Mean (Range) SERT Occupancy, Mean” value ([5]; ~7 h) was 32 (23-41) % and the “Mean (Range) SERT Occupancy, Striatum” value ([5]; ~7 h) was 32 (23-37) %. For the same compound, the “Mean (Range) SERT Occupancy, Thalamus” value ([5]; ~7 h) was 33 (22-44) % and the NOAEL at 14 days [6] was 100 mg/kg/day.
